ChEMBL document CHEMBL1146741, “Cycloalkyl[b][1,4]benzodiazepinoindoles are agonists at the human 5-HT2C receptor” (Bioorg Med Chem Lett, 2004)

Legend:
[1] = target: T1, 5-hydroxytryptamine receptor 2C (Homo sapiens, UniProt P28335); experiment: Agonistic binding affinity against human 5-hydroxytryptamine 2C receptor in CHO cells using [125I]- DOI; format: cell-based
T1 sequence (P28335 whole entry): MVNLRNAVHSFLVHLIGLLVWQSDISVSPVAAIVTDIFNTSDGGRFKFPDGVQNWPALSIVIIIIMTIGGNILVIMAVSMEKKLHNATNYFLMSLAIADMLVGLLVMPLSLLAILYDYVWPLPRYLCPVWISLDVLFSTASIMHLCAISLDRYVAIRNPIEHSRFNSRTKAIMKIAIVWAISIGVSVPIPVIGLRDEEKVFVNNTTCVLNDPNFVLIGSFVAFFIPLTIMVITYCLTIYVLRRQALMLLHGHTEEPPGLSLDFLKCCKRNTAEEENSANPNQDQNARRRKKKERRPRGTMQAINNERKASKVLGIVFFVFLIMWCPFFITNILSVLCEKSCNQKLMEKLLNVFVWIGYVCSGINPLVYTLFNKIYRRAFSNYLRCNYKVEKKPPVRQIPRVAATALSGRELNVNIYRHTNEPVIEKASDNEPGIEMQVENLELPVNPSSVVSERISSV

[2] = target: T2, 5-hydroxytryptamine receptor 2A (Homo sapiens, UniProt P28223); experiment: Agonistic binding affinity against human 5-hydroxytryptamine 2A receptor in CHO cells using [125I]-DOI
[3] = target: T3, 5-hydroxytryptamine receptor 2C (Homo sapiens) (UniProt P28335); experiment: Agonistic binding affinity against human 5-hydroxytryptamine 2C receptor in CHO cells using [125I]- DOI radioligand, expressed as Emax; format: cell-based
T3 sequence (whole entry): T1 sequence (P28335 whole entry)

[4] = target: T2, 5-hydroxytryptamine receptor 2A; experiment: Agonistic binding affinity against human 5-hydroxytryptamine 2A receptor in CHO cells using [125I]DOI radioligand
[5] = target: T3, 5-hydroxytryptamine receptor 2C (Homo sapiens); experiment: Agonistic binding efficacy against human 5-hydroxytryptamine 2C receptor in CHO cells using [125I]- DOI radioligand; format: cell-based
[6] = target: T2, 5-hydroxytryptamine receptor 2A; experiment: Effective concentration against human 5-hydroxytryptamine 2A receptor in CHO cells by stimulation of [3H]inositol monophosphate production
[7] = target: D(4) dopamine receptor (Homo sapiens) (UniProt P21917); experiment: Percent binding affinity against dopamine receptor D4; details: concentration not given here
[8] = target: T4, 5-hydroxytryptamine receptor 1A (Homo sapiens) (UniProt P08908); experiment: Percent binding affinity against 5-hydroxytryptamine 1A receptor; details: concentration not given here
T4 sequence (whole entry): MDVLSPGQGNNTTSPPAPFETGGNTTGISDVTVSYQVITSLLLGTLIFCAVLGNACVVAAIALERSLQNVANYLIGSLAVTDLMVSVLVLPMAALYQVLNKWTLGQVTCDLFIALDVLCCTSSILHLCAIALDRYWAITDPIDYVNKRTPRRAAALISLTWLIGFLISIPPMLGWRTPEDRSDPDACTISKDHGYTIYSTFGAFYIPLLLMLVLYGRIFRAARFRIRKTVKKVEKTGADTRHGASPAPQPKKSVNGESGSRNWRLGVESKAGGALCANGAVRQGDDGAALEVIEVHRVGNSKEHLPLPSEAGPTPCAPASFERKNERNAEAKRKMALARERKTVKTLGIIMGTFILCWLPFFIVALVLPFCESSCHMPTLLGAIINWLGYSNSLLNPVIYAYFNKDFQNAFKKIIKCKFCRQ

[9] = target: D(3) dopamine receptor (Homo sapiens) (UniProt P35462); experiment: Percent binding affinity against dopamine D3 receptor; details: concentration not given here
Sequence of D(3) dopamine receptor (Homo sapiens) (P35462 whole entry, looked up): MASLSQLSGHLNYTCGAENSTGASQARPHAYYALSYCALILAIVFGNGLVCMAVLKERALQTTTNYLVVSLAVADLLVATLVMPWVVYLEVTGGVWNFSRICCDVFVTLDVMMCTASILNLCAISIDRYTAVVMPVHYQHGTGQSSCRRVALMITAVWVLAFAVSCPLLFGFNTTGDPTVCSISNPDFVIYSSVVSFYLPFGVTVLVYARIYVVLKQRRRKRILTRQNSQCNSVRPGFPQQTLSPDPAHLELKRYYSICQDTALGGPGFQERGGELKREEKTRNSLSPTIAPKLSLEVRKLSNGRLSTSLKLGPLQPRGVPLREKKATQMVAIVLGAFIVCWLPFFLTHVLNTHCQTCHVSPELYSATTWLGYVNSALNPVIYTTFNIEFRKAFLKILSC

T2 sequence (P28223 whole entry): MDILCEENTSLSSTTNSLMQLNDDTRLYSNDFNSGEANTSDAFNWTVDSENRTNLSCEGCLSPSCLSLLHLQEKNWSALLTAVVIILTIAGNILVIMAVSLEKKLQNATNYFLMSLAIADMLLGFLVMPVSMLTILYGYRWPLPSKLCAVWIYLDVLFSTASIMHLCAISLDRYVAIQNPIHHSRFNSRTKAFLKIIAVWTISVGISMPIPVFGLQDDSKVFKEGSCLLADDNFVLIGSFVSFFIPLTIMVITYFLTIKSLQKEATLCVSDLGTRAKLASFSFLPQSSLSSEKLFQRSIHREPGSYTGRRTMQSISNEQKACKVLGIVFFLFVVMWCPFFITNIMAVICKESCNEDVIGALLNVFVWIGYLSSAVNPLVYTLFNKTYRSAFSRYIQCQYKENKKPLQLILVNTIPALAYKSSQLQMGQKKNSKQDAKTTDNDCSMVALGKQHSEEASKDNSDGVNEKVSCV
Sequence of D(4) dopamine receptor (Homo sapiens) (P21917 whole entry, looked up): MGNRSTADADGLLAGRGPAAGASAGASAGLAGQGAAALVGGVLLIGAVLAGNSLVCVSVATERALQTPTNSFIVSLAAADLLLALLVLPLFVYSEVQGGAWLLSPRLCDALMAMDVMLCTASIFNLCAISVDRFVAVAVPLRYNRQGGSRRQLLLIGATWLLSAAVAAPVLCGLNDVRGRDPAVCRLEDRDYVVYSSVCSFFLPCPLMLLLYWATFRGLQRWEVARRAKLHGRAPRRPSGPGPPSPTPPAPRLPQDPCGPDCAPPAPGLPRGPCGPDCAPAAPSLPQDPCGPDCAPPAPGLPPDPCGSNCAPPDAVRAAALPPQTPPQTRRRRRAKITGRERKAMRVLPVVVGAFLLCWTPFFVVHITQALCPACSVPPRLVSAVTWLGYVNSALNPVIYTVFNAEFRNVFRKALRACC

CC1(C)Cc2c(c3cccc4c3n2CCNC4)C(C)(C)C1
Ki [1]: 79 nM
Ki [2]: 152 nM

Fc1ccc2c3c1c1c(n3CCNC2)CCCC1
Ki [1]: 111 nM

Cc1cc2c3c(c1)c1c(n3CCNC2)CCCC1
Ki [2]: 1230 nM

c1cc2c3c(c1)c1c(n3CCNC2)CCC1
Emax [3]: 90%
Ki [4]: 922 nM

Cc1cc2c3c(c1)c1c(n3CCNC2)CCC1
Ki [2]: 2530 nM

c1cc2c3c(c1)c1c(n3CCNC2)CCCCC1
Ki [2]: 199 nM
Efficacy [5]: 73%

C[C@@H]1Cn2c3c(c4cccc(c42)CN1)CCCC3
Ki [2]: 1560 nM

c1cc2c3c(c1)c1c(n3CCNC2)CCCCCC1
Emax [3]: 102%
EC50 [6]: 64000 nM
Ki [2]: 36 nM
inhibition [7]: 47%
Efficacy [5]: 102%
inhibition [8]: 4%
inhibition [9]: 37%
